Where two headings read alike, the source gives them in different places.
Columns and labels:
[1] = tested on: marine bacteria strain S3; experiment: disc inhibition assay, strain S3; format: cell-based, Erythrobacter aquimaris; conditions: for zone of inhibition at 50 µg/disc: Qipengyuania aquimaris, S3, 24 h
Experimental: (§1) The disc inhibition assay was used. This assay is a conventional method routinely used for screening antibacterial compounds to determine degree of susceptibility to antibacterial compounds. The diameter of the zone of inhibition is proportional to the degree of susceptibility of the bacterial strain. The compounds were tested against 13 strains of marine bacteria isolated from Singapore coastal waters.
(§2) 13 strains of marine bacteria were isolated from fouling communities located in the coastal waters around Singapore. These were characterized in earlier studies and reported in Teo et al. (U.S. patent application Ser. No. 11/265,833) and Choong et al (in prep). In addition, four reference bacterial strains were added tested: Escherichia coli (Strain K12, ATCC 15222), E. coli (strain DH5a), Pseudomonas aeruginosa (strain LMG 12228; ATCC 15692) and P. putida (strain KT2440; ATCC 47054). All the bacteria were also tested against five antibiotics: ampicillin (AMP), tetracycline (TETR), erythromycin (ERY), chloramphenicol (CHL) and streptomycin (STREP).
(§3) Disks comprising the compounds to be tested were prepared as follows. The antibacterial assay, the pure compounds were made up to a concentration of 2 mgml^−1 in DMSO. 25 μl of the stock was pipetted onto each 6 mm sterile disc (Macherey-Nagel #484000) to obtain 50 μg of compound per disc. Equivalent volume of DMSO was used inoculated for the control.
(§4) For all disk inhibition assays, bacterial cultures were grown in marine broth (Pronadisa #1217.00). Sterile swabs dipped into the cultures were used to inoculate Marine Agar plates with a bacterial lawn by smearing the culture over the surface. After inoculating the plates, discs with antibiotics, pharmaceuticals or control blanks were placed on each plate. Each concentration of antibiotic or pharmaceutical was tested with two replicates. After the disks were placed on the agar surface, plates were incubated overnight in the dark at 35° C. After incubation, plates were examined for zones of inhibition or clearing around control and treated disks. The diameter of any zone of clearing or inhibition was measured using Vernier calipers. There were two replicates per treatment, and the average was taken.

[2] = tested on: marine bacteria strain S16; experiment: disc inhibition assay, strain S16; format: cell-based, Pseudoalteromonas piscicida; conditions: for zone of inhibition at 50 µg/disc: Pseudoalteromonas piscicida, S16, 24 h; for antibacterial activity in words: strain S16
Experimental: as §1, §2, §3, §4

[3] = tested on: marine bacteria strain S14; experiment: disc inhibition assay, strain S14; format: cell-based, Vibrio probioticus; conditions: strain 14, 50 μg of compound per disc
Experimental: as §1, §2
(§5) Disks comprising the compounds to be tested were prepared as follows. The antibacterial assay, the pure compounds were made up to a concentration of 2 mgml^−1 in DMSO. […] Equivalent volume of DMSO was used inoculated for the control.
as §4

[4] = tested on: marine bacteria strain S29; experiment: disc inhibition assay, strain S29; format: cell-based, Bacillus hwajinpoensis; conditions: for zone of inhibition at 50 µg/disc: Guptibacillus hwajinpoensis, S29, 24 h
Experimental: as §1, §2, §3, §4

[5] = tested on: marine bacteria strain S27; experiment: disc inhibition assay, strain S27; format: cell-based, Tenacibaculum lutimaris; conditions: strain 27, 50 μg of compound per disc
Experimental: as §1, §2, §3, §4

[6] = tested on: marine bacteria strain S9; experiment: disc inhibition assay, strain S9; format: cell-based, Bacillus algicola; conditions: for zone of inhibition at 50 µg/disc: Guptibacillus algicola, S9, 24 h
Experimental: as §1, §2, §3, §4

[7] = tested on: marine bacteria strain S10; experiment: disc inhibition assay, strain S10; format: cell-based, Halobacillus trueperi; conditions: for zone of inhibition at 50 µg/disc: Halobacillus trueperi, S10, 24 h
Experimental: as §1, §2, §3, §4

[8] = tested on: marine bacteria strain S18; experiment: disc inhibition assay, strain S18; format: cell-based, Microbacterium esteraromaticum; conditions: for zone of inhibition at 50 µg/disc: Microbacterium esteraromaticum, S18, 24 h
Experimental: as §1, §2, §5, §4

[9] = tested on: marine bacteria strain S28; experiment: disc inhibition assay, strain S28; format: cell-based, Arthrobacter protophormial; conditions: for zone of inhibition at 50 µg/disc: Arthrobacter, S28, 24 h
Experimental: as §1, §2, §3, §4

[10] = tested on: marine bacteria strain S1; experiment: disc inhibition assay, strain S1; format: cell-based, Rhodovulum iodosum; conditions: for zone of inhibition: strain 1, 50 μg of compound per disc
Experimental: as §1, §2, §3, §4

[11] = tested on: marine bacteria strain S30; experiment: disc inhibition assay, strain S30; format: cell-based, Bacillus borophilicus; conditions: for zone of inhibition at 50 µg/disc: Bacillus, S30, 24 h
Experimental: as §1, §2, §3, §4

[12] = tested on: marine bacteria strain S4; experiment: disc inhibition assay, strain S4; format: cell-based, Bacillus algicola; conditions: for zone of inhibition at 50 µg/disc: Guptibacillus algicola, S4, 24 h
Experimental: as §1, §2, §3, §4

[13] = tested on: marine bacteria strain S17; experiment: disc inhibition assay, strain S17; format: cell-based, Gordonia terrae; conditions: for zone of inhibition at 50 µg/disc: Gordonia terrae, S17, 24 h
Experimental: as §1, §2, §3, §4

[14] = strain 3, 50 μg of compound per disc, read-out: zone of inhibition
[15] = strain 16, 50 μg of compound per disc
[16] = strain 29, 50 μg of compound per disc
[17] = strain 9, 50 μg of compound per disc
[18] = strain 10, 50 μg of compound per disc
[19] = strain 18, 50 μg of compound per disc
[20] = strain 28, 50 μg of compound per disc
[21] = strain 30, 50 μg of compound per disc
[22] = strain 4, 50 μg of compound per disc
[23] = strain 17, 50 μg of compound per disc
[24] = strain 3, 50 μg of compound per disc
[25] = strain 16, 50 μg of compound per disc, read-out: zone of inhibition
[26] = strain 10, 50 μg of compound per disc, read-out: zone of inhibition

O=C(C(c1ccccc1)c1ccccc1)N1CCC(O)(c2ccc(Cl)cc2)CC1 [Compound 4.3]
zone of inhibition at 50 µg/disc [1, 14]: 2 to 5 mm
zone of inhibition [2, 15]: −
zone of inhibition [3]: −
zone of inhibition [4, 16]: −
zone of inhibition [5]: −
zone of inhibition [6, 17]: −
zone of inhibition [7, 18]: −
zone of inhibition [8, 19]: −
zone of inhibition [9, 20]: −
zone of inhibition [10]: −
zone of inhibition [11, 21]: −
zone of inhibition [12, 22]: −
zone of inhibition [13, 23]: −

CN(C)C(=O)C(CC[N+]1(C)CCC(O)(c2ccc(Cl)cc2)CC1)(c1ccccc1)c1ccccc1 (stereo not drawn) [Compound 4.7]
zone of inhibition at 50 µg/disc [1]: 5 to 10 mm
zone of inhibition at 50 µg/disc [2]: 2 to 5 mm
zone of inhibition [3]: −
zone of inhibition at 50 µg/disc [4]: 5 to 10 mm
zone of inhibition [5]: −
zone of inhibition at 50 µg/disc [6]: 5 to 10 mm
zone of inhibition at 50 µg/disc [7]: 5 to 10 mm
zone of inhibition at 50 µg/disc [8]: 2 to 5 mm
zone of inhibition at 50 µg/disc [9]: 5 to 10 mm
zone of inhibition [10]: −
zone of inhibition at 50 µg/disc [11]: 2 to 5 mm
zone of inhibition at 50 µg/disc [12]: 5 to 10 mm
zone of inhibition at 50 µg/disc [13]: 2 to 5 mm

CN(C)C(=O)C(CC[N+]1(O)CCC(O)(c2ccc(Cl)cc2)CC1)(c1ccccc1)c1ccccc1 (stereo not drawn) [Compound 5.1]
zone of inhibition at 50 µg/disc [1]: 2 to 5 mm
zone of inhibition at 50 µg/disc [2]: 2 to 5 mm
zone of inhibition [3]: −
zone of inhibition [4, 16]: −
zone of inhibition [5]: −
zone of inhibition [6, 17]: −
zone of inhibition [7, 18]: −
zone of inhibition [8, 19]: −
zone of inhibition [9, 20]: −
zone of inhibition [10]: −
zone of inhibition [11, 21]: −
zone of inhibition [12, 22]: −
zone of inhibition at 50 µg/disc [13]: 2 to 5 mm

COC1(c2ccc(Cl)cc2)CC[N+](C)(CCC(C(=O)N(C)C)(c2ccccc2)c2ccccc2)CC1 (stereo not drawn) [Compound 5.2, N,O-dimethyl Loperamide]
zone of inhibition at 50 µg/disc [1]: 5 to 10 mm
zone of inhibition at 50 µg/disc [2]: 2 to 5 mm
zone of inhibition [3]: −
zone of inhibition at 50 µg/disc [4]: 5 to 10 mm
zone of inhibition [5]: −
zone of inhibition at 50 µg/disc [6]: 5 to 10 mm
zone of inhibition at 50 µg/disc [7]: 5 to 10 mm
zone of inhibition at 50 µg/disc [8]: > 10 mm
zone of inhibition at 50 µg/disc [9]: 5 to 10 mm
zone of inhibition at 50 µg/disc ([10]; Rhodovulum iodosum, S1): 2 to 5 mm
antibacterial activity in words ([10]; strain S1, text): had activity
zone of inhibition at 50 µg/disc [11]: 5 to 10 mm
zone of inhibition at 50 µg/disc [12]: 5 to 10 mm
zone of inhibition at 50 µg/disc [13]: 2 to 5 mm

CC(=O)OC1(c2ccc(Cl)cc2)CCN(CCC(C(=O)N(C)C)(c2ccccc2)c2ccccc2)CC1 [Compound 5.3]
zone of inhibition at 50 µg/disc [1]: 5 to 10 mm
zone of inhibition [2, 15]: −
zone of inhibition [3]: −
zone of inhibition at 50 µg/disc [4]: 2 to 5 mm
zone of inhibition [5]: −
zone of inhibition at 50 µg/disc [6]: 2 to 5 mm
zone of inhibition at 50 µg/disc [7]: 5 to 10 mm
zone of inhibition at 50 µg/disc [8]: 2 to 5 mm
zone of inhibition at 50 µg/disc [9]: 2 to 5 mm
zone of inhibition [10]: −
zone of inhibition at 50 µg/disc [11]: 2 to 5 mm
zone of inhibition at 50 µg/disc [12]: 2 to 5 mm
zone of inhibition at 50 µg/disc [13]: 2 to 5 mm

CN(C)C(=O)C(CCN1CCCCC1)(c1ccccc1)c1ccccc1 [Compound 9.1, N, N-Dimethyl-2,2-diphenyl-4-(piperidin-1-yl)butanamide]
zone of inhibition [1, 24]: −
zone of inhibition [2, 15]: −
zone of inhibition [3]: −
zone of inhibition [4, 16]: −
zone of inhibition [5]: −
zone of inhibition at 50 µg/disc [6]: 2 to 5 mm
zone of inhibition [7, 18]: −
zone of inhibition at 50 µg/disc [8]: 2 to 5 mm
zone of inhibition [9, 20]: −
zone of inhibition [10]: −
zone of inhibition [11, 21]: −
zone of inhibition [12, 22]: −
zone of inhibition [13, 23]: −

O=C(C(c1ccccc1)c1ccccc1)N1CCC(O)CC1 [Compound 9.3]
zone of inhibition [1, 24]: −
zone of inhibition at 50 µg/disc [2, 25]: 2 to 5 mm
zone of inhibition [3]: −
zone of inhibition [4, 16]: −
zone of inhibition [5]: −
zone of inhibition [6, 17]: −
zone of inhibition at 50 µg/disc [7, 26]: 2 to 5 mm
zone of inhibition [8, 19]: −
zone of inhibition [9, 20]: −
zone of inhibition [10]: −
zone of inhibition [11, 21]: −
zone of inhibition [12, 22]: −
zone of inhibition [13, 23]: −

O=C(Cc1ccccc1)N1CCCCC1 [Compound 10.5]
zone of inhibition [1, 24]: −
zone of inhibition at 50 µg/disc [2, 25]: 5 to 10 mm
zone of inhibition [3]: −
zone of inhibition [4, 16]: −
zone of inhibition [5]: −
zone of inhibition [6, 17]: −
zone of inhibition [7, 18]: −
zone of inhibition [8, 19]: −
zone of inhibition [9, 20]: −
zone of inhibition [10]: −
zone of inhibition [11, 21]: −
zone of inhibition [12, 22]: −
zone of inhibition [13, 23]: −

CCCCCC(=O)N1CCCCC1 [Compound 11.1]
zone of inhibition [1, 24]: −
zone of inhibition at 50 µg/disc [2, 25]: 5 to 10 mm
antibacterial activity in words [2]: susceptible
zone of inhibition [3]: −
zone of inhibition [4, 16]: −
zone of inhibition [5]: −
zone of inhibition [6, 17]: −
zone of inhibition [7, 18]: −
zone of inhibition [8, 19]: −
zone of inhibition [9, 20]: −
zone of inhibition [10]: −
zone of inhibition [11, 21]: −
zone of inhibition [12, 22]: −
zone of inhibition [13, 23]: −

CCCCCC(=O)N(C)C [Compound 11.2]
zone of inhibition [1, 24]: −
zone of inhibition at 50 µg/disc [2, 25]: 2 to 5 mm
antibacterial activity in words [2]: susceptible
zone of inhibition [3]: −
zone of inhibition [4, 16]: −
zone of inhibition [5]: −
zone of inhibition [6, 17]: −
zone of inhibition [7, 18]: −
zone of inhibition [8, 19]: −
zone of inhibition [9, 20]: −
zone of inhibition [10]: −
zone of inhibition [11, 21]: −
zone of inhibition [12, 22]: −
zone of inhibition [13, 23]: −

C/C=C/C=C/C(=O)N1CCCCC1 [Compound 11.4]
antibacterial activity in words [2]: susceptible

CCCCC(C(=O)N1CCCCC1)c1ccccc1 (stereo not drawn) [Compound 12.1, 2-Phenyl-1-(piperidin-1-yl)hexan-1-one]
zone of inhibition at 50 µg/disc [1, 14]: 5 to 10 mm
zone of inhibition [2, 15]: −
zone of inhibition [3]: −
zone of inhibition at 50 µg/disc ([4]; strain 29, 50 μg of compound per disc, read-out: zone of inhibition): 2 to 5 mm
zone of inhibition at 50 µg/disc ([5]; Tenacibaculum lutimaris, S27, 24 h, read-out: zone of inhibition): 2 to 5 mm
zone of inhibition at 50 µg/disc ([6]; strain 9, 50 μg of compound per disc, read-out: zone of inhibition): 2 to 5 mm
zone of inhibition at 50 µg/disc [7, 26]: 2 to 5 mm
zone of inhibition at 50 µg/disc ([8]; strain 18, 50 μg of compound per disc, read-out: zone of inhibition): 2 to 5 mm
zone of inhibition at 50 µg/disc ([9]; strain 28, 50 μg of compound per disc, read-out: zone of inhibition): 2 to 5 mm
zone of inhibition [10]: −
zone of inhibition at 50 µg/disc ([11]; strain 30, 50 μg of compound per disc, read-out: zone of inhibition): 2 to 5 mm
zone of inhibition at 50 µg/disc ([12]; strain 4, 50 μg of compound per disc, read-out: zone of inhibition): 2 to 5 mm
zone of inhibition at 50 µg/disc ([13]; strain 17, 50 μg of compound per disc, read-out: zone of inhibition): 2 to 5 mm
